In brackets after ≈: the same amount, converted by molar mass.

In series [1] the test system is HT-29. In words: Cytotoxicity against human HT29 cells. The format is functional. The note with it: read-out: ED50 (the source's name).
Series [2] can be described thus: Toxicity in brine shrimp larvae. It counts as organism-based. The conditions noted are these: artemia, in vivo.
Series [3] has as its system Echinochloa crus-galli. In words: Inhibition of phytogrowth in Echinochloa crus-galli seedlings measured after 48 hrs incubation under dark condition. The format is functional, organism-based.
Series [4] relates to Fusarium oxysporum. In words: Antifungal activity against Fusarium oxysporum. The format is functional.
Series [5] concerns Trichophyton mentagrophytes. In words: Antifungal activity against Trichophyton mentagrophytes ATCC 9129 by agar dilution method. It counts as functional.
Series [6] has as its system MCF7. In words: Cytotoxicity against human MCF7 cells. The format is functional. The conditions noted are these: read-out: ED50 (the source's name).
Series [7] concerns Amaranthus hypochondriacus. In words: Inhibition of phytogrowth in Amaranthus hypochondriacus seedlings measured after 24 hrs incubation under dark condition. It counts as functional, organism-based.
In series [8] the test system is A549. In words: Cytotoxicity against human A549 cells. It counts as functional. The conditions noted are these: read-out: ED50 (the source's name).
The subject of series [9] is Aspergillus niger. In words: Antifungal activity against Aspergillus niger ATCC 16888 by agar dilution method. It counts as functional.

For `C=CCc1cc(OC)c(OC)c(OC)c1OC`, the EC50 in series [1] came out at 71 µg/mL (≈ 298 µM); in series [6], 46 µg/mL (≈ 193 µM); in series [8] it was 29 µg/mL (≈ 122 µM). The compound further showed a 50% lethal concentration (LC50) in series [2] of 144 µg/mL (≈ 604 µM). Further, the figures for the half-inhibitory concentration (IC50) in series [3] and in series [7] were 810 µg/mL (≈ 3400 µM) and 43 µg/mL (≈ 180 µM), respectively. The MIC stood at 250 µg/mL (≈ 1050 µM) in [4] and 500 µg/mL (≈ 2100 µM) in [5].
For `COc1cc(C=O)c(OC)c(OC)c1OC`, the IC50 is greater than 1000 µg/mL in series [3] and 822 µg/mL (≈ 3630 µM) in [7].
`C[C@@H]1[C@H](O)[C@@H](C)/C=C/C=C/C=C/C=C/C=C/C=C/C=C/[C@H](O[C@@H]2O[C@H](C)[C@@H](O)[C@H](N)[C@@H]2O)C[C@@H]2O[C@](O)(C[C@@H](O)C[C@@H](O)[C@H](O)CC[C@@H](O)C[C@@H](O)CC(=O)O[C@H]1C)C[C@H](O)[C@H]2C(=O)O` [AMPHOTERICIN B] gave a minimum inhibitory concentration (MIC) in series [9] of 3 µg/mL (≈ 3.25 µM).
Take `COc1cccc2c1C(=O)c1c(O)c3c(c(O)c1C2=O)C[C@@](O)(C(=O)CO)C[C@@H]3O[C@H]1C[C@H](N)[C@H](O)[C@H](C)O1` [DOXORUBICIN]: the EC50 in series [1] is 0.007 µg/mL (≈ 0.0129 µM); in [6], 0.3 µg/mL (≈ 0.552 µM); in [8], 0.03 µg/mL (≈ 0.0552 µM).
Turning to `COC1=CC(=O)C[C@@H](C)[C@]12Oc1c(Cl)c(OC)cc(OC)c1C2=O` [GRISEOFULVIN], the MIC in series [5] was 2.6 µg/mL (≈ 7.37 µM).
Compound `CCCCC[C@H]1CCCCCCCCCC(=O)O[C@H]2[C@H](O)[C@@H](CO)O[C@@H](O[C@H]3[C@H](O1)O[C@H](C)[C@H](O)[C@@H]3O)[C@@H]2O[C@@H]1O[C@@H](C)[C@H](OC(=O)[C@@H](C)CC)[C@@H](O[C@@H]2O[C@@H](C)[C@H](O)[C@@H](O)[C@H]2O)[C@H]1OC(=O)[C@@H](C)CC` [TRICOLORIN A] displayed an IC50 in series [3] of 12 µg/mL (≈ 11.7 µM).

A word on the LC50: it is the concentration lethal to half of the exposed cells or organisms. Higher therefore signals lower toxicity. By IC50 is commonly meant the point on the concentration scale where inhibition reaches its midpoint. The term MIC denotes the smallest concentration in the dilution series that meets the test's criterion for growth inhibition. Read a high MIC as weaker potency.

Source of the values: ChEMBL document CHEMBL1158194, “Phytogrowth-inhibitory compounds from Malmea depressa” (J Nat Prod, 1996).
